Species: Rattus norvegicus
Experiment: Open TG-GATES - Regimen: Daily Repeat
Format: toxicity, organism-based, Sprague-Dawley
Design: regimen Daily Repeat, gender Male, age 6 weeks
Conditions: in vivo, po, 100 mg/kg, route gavage, dose level Low; for APTT / Bas / Eos / Fbg / Hb / Ht / Lym / MCH / MCHC / MCV / Mono / Neu / PT / Plat / RBC / Ret / WBC: tissue Blood
[1] = 72 h, tissue Kidney, time 3 day
[2] = 72 h, tissue Plasma, time 3 day

CN(C)[C@@H]1C(O)=C(C(N)=O)C(=O)[C@@]2(O)C(O)=C3C(=O)c4c(O)cccc4[C@@](C)(O)[C@H]3C[C@@H]12 [TETRACYCLINE]
TERMINAL_BW (72 h, time 3 day): 197.6 g
APTT (72 h, time 3 day): 16.3 s
Bas (72 h, time 3 day): 0%
Eos (72 h, time 3 day): 0.8%
Fbg (72 h, time 3 day): 225.6 mg/dL
Hb (72 h, time 3 day): 13.2 g/dL
Ht (72 h, time 3 day): 39.6%
Lym (72 h, time 3 day): 85%
MCH (72 h, time 3 day): 21.7 pg
MCHC (72 h, time 3 day): 33.4%
MCV (72 h, time 3 day): 65.1 fL
Mono (72 h, time 3 day): 5.2%
Neu (72 h, time 3 day): 9%
PT (72 h, time 3 day): 12.1 s
Plat (72 h, time 3 day): 103.9 x10_4/uL
RBC (72 h, time 3 day): 608.6 x10_4/ul
Ret (72 h, time 3 day): 7.9%
WBC (72 h, time 3 day): 100.3 x10_2/uL
KIDNEY_L [1]: 0.9 g
KIDNEY_R [1]: 0.9 g
KIDNEY_TOTAL [1]: 1.8 g
LIVER (72 h, tissue Liver, time 3 day): 9.3 g
A/G [2]: 2.1
ALP [2]: 900.4 IU/L
ALT [2]: 40.6 IU/L
AST [2]: 73.4 IU/L
BUN [2]: 16.8 mg/dL
CRE [2]: 0.6 mg/dL
Ca [2]: 11.2 mg/dL
Cl [2]: 106.4 meq/L
DBIL [2]: 0 mg/dL
GLC [2]: 195.6 mg/dL
IP [2]: 9 mg/dL
K [2]: 4.8 meq/L
LDH [2]: 134.4 IU/L
Na [2]: 140 meq/L
PL [2]: 145.2 mg/dL
RALB [2]: 3.9 g/dL
TBIL [2]: 0.3 mg/dL
TC [2]: 86.2 mg/dL
TG [2]: 48.8 mg/dL
TP [2]: 5.7 g/dL
gamma-GTP [2]: 0.8 IU/L
TERMINAL_BW ([…], time 7 day): 227.4 g
TERMINAL_BW ([…], time 14 day): 271.9 g
TERMINAL_BW ([…], time 28 day): 346.9 g
APTT ([…], time 7 day): 16.7 s
Bas ([…], time 7 day): 0%
Eos ([…], time 7 day): 1%
Fbg ([…], time 7 day): 241 mg/dL
Hb ([…], time 7 day): 13.5 g/dL
Ht ([…], time 7 day): 40.2%
Lym ([…], time 7 day): 85.2%
MCH ([…], time 7 day): 21 pg
MCHC ([…], time 7 day): 33.6%
MCV ([…], time 7 day): 62.3 fL
Mono ([…], time 7 day): 6.2%
Neu ([…], time 7 day): 8%
PT ([…], time 7 day): 12 s
Plat ([…], time 7 day): 101.8 x10_4/uL
RBC ([…], time 7 day): 645.8 x10_4/ul
Ret ([…], time 7 day): 6.6%
WBC ([…], time 7 day): 114 x10_2/uL
APTT ([…], time 14 day): 16.5 s
Bas ([…], time 14 day): 0%
Eos ([…], time 14 day): 0.6%
Fbg ([…], time 14 day): 229.6 mg/dL
Hb ([…], time 14 day): 13.9 g/dL
Ht ([…], time 14 day): 41.7%
Lym ([…], time 14 day): 91.2%
MCH ([…], time 14 day): 20.9 pg
MCHC ([…], time 14 day): 33.5%
MCV ([…], time 14 day): 62.5 fL
Mono ([…], time 14 day): 2.4%
Neu ([…], time 14 day): 6.2%
PT ([…], time 14 day): 11.7 s
Plat ([…], time 14 day): 108.7 x10_4/uL
RBC ([…], time 14 day): 667.2 x10_4/ul
Ret ([…], time 14 day): 5.5%
WBC ([…], time 14 day): 180.6 x10_2/uL
APTT ([…], time 28 day): 17.5 s
Bas ([…], time 28 day): 0%
Eos ([…], time 28 day): 1%
Fbg ([…], time 28 day): 230.2 mg/dL
Hb ([…], time 28 day): 14.8 g/dL
Ht ([…], time 28 day): 44.5%
